Patent US20100047332A1, “Treatments for burns using thyroid hormone compound in a human” (priority 2005, published 2010)

What was measured:
[1] = tested on: wounds such as lacerations; test: Lacerations treated with continuous topical T-3 or TriAc; format: in vivo, human; conditions: continuous topical application, in approximately three days
[2] = tested on: cellulite and subcutaneous fat; test: TriAc cream before exercise for cellulite; format: in vivo, human; conditions: after twelve applications
Protocol: TriAc-containing creams were produced by dissolving TriAc in a suitable solvent and adding it to a cream base. […] TriAc could also be added to the oil phase of a water in oil or a oil in water cream base, or charged in a solid lipid nanoparticle, or applied as a liposome, or a matrix patch as is known in the art.
The cream was only applied before exercise. More specifically, application occurred between 30 minutes and 2 hours before mild exercise. The mild exercise involved the underlying musculature, and included long walks, jogging, or gym exercises involving light resistance exercises, or stairmasters, treadmills and the like.
The amount of cream applied was always less than 5 ml, just sufficient to cover the area, usually less than 2 ml. […] For most of the applications, the amount of cream applied was less than 3 ml and usually less than 1.5 ml. In these applications, less than 0.4 mg was applied and as little as 80 μg was applied in at least some of the applications. Exercise occurred one to three times a week. Consequently, the cream was only applied one to three times a week. Two grams of cream, approximately 2 mls, was sufficient to cover the buttocks, back of thighs, and anterior waist area.

[3] = tested on: lateral hip fat deposits; test: TriAc cream before exercise for lateral hip fat deposits; format: in vivo, human
From the text: A non obese person who ran 20 miles a week had lateral hip fat deposits which were resistant to any change.

[4] = tested on: rat; conditions: cited from earlier work
[5] = tested on: TSH; conditions: topically applied, humans; cited from earlier work

O=C(O)Cc1cc(I)c(Oc2ccc(O)c(I)c2)c(I)c1 [TriAc, [4-(4-hydroxy-3-iodophenoxy)-3,5-diiodophenyl]acetic acid]
signs of inflammation [1]: increased signs of inflammation
cellulite ([2]; 8 to 16 mg TriAc per 100 ml, before exercise): little evidence of cellulite remained
contour of the buttocks [2]: smaller and smoother
change of fat deposits ([3]; 9 mg TriAc per 100 ml base, 1 to 3 times a week before exercise, for 2 to 3 weeks): Little change
fat deposits ([3]; after 5 weeks of application): could barely be discerned
amount needed to make a 200 gm rat hyperthyroid [4]: approximately 7 micrograms
effect on TSH levels or other thyroid hormone function tests [5]: no effect on TSH levels
